Earlier results as cited in patent publication US20220323308A1, “DISSOLVABLE VITAMIN C AND RETINOL FILM” (Mary Kay Inc., priority 2019, published 2022).

Settings: topical, when properly formulated

## O=C1O[C@H]([C@@H](O)CO)C(O)=C1O [ascorbic acid]
  enhancement of endogenous ascorbic acid levels in the skin: up to twenty-fold
